The values that follow are results of earlier work, collected in patent US20120022114A1, “Low-dose, non-irritating nicotine nasal composition to reduce the desire to smoke” (Laboratorio Pablo Cassara S.R.L., priority 2009, published 2012).

The conditions of the data set: when inhaled; on average.

Molecules are shown by their SMILES.

On to `CN1CCCC1c1cccnc1` (stereo not shown) [nicotine, Nicotine], for which the “Time for the substance to reach the brain” value was “about seven”.
